Measurements reported in patent publication US20230181727A1, “COMPOSITION OF NANOPARTICLES” (priority 2020, published 2023).

What was measured:
[1] = Solubility enhancement of epitopes (solubility in water); format: physicochemical
Text: On the N-terminal site of the enzymatically cleaved linker the addition of polar amino acids can be used to enhance the solubility of the whole peptide. […] The use in a human vaccine is difficult. In animal studies researchers dissolve it in DMSO. The solubility after e.g. subcutaneous injection is questionable: dilution might result in precipitation of large peptide particles, which is very unfavorable for transport to lymphnodes.
According to the invention the epitope […] was enlarged on the N-terminal site with the enzymatic cleavable linker Val-Cit and the cationic solubilizing sequence Lys-Lys-Lys, leading to […]

[2] = test system: DC2.4 cells; assay: MHC I cross presentation of OVA 257-264 in DC2.4 cells; format: cell-based, murine; settings: 5 μM, 6 h incubation, 25-D1.16 antibody, flow cytometry
Protocol: In the experiment, the OVA257-264 presentation efficacy after incubation of 5.10^4 DC2.4 cells with 5 μM solutions of full length protein (OVA=Ovalbumin), N— and C-terminal elongated epitope (OVA247-264A5K, a so called synthetic long peptide (SLP)), N-terminal elongated epitope with a Cathepsin B cleavable sequence (exemplary shown RW-Cit-OVA257-264) or native epitope (OVA257-264), each with and without nanoparticles, was compared. […] After an incubation time of 6 h, the test substances are removed by washing with phosphate-buffered saline (PBS). In the next step, the cells were incubated with CD1 6/CD32 antibody in order to block the non-specific binding of the detection antibody to the Fc (Fragment, crystallizable) receptor of the cells. After incubation with 25-D1.16 antibody, the amount of cross-presented OVA257-264 was quantified by flow cytometry.
FIG. 16: OVA257-264 MHC I expression after 6 h incubation of H2-Kb positive cells with 5 μM solution of native or elongated OVA257-264 epitope or full length OVA protein with or without SiO2—PO3H2. Quantification was carried out by flow cytometry after labeling with 25-D1.16 detection antibody.

| Compound | solubility in water [1] | OVA257-264 MHC I expression [2] |
| --- | --- | --- |
| CC[C@H](C)[C@H](NC(=O)CNC(=O)[C@H](CC(C)C)NC(=O)[C@@H](NC(=O)CNC(=O)[C@H](CCSC)NC(=O)[C@H](CC(C)C)NC(=O)[C@H](CC(C)C)NC(=O)[C@H](CCCNC(N)=O)NC(=O)[C@@H](NC(=O)[C@H](CCCCN)NC(=O)[C@H](CCCCN)NC(=O)[C@@H](N)CCCCN)C(C)C)[C@@H](C)O)C(=O)N[C@H](C(=O)O)C(C)C | excellent solubility in water | – |
| SIINFEKL [OVA257-264] | – | presented in significant amounts |
| CC[C@H](C)[C@H](NC(=O)CNC(=O)[C@H](CC(C)C)NC(=O)[C@@H](NC(=O)CNC(=O)[C@H](CCSC)NC(=O)[C@H](CC(C)C)NC(=O)[C@@H](N)CC(C)C)[C@@H](C)O)C(=O)N[C@H](C(=O)O)C(C)C | very bad solubility in water | – |
